Assay results reported in US10251395B2, “Substituted furano-/thienocycloalkylamino-2-pyrimidine derivatives and use thereof for controlling undesired plant growth” (Bayer CropScience Aktiengesellschaft, priority 2015, dated 2019).

Columns and labels:
Type in all cases: in vivo
Alopecurus myosuroides = experiment: Pre-emergence herbicidal effect; details: scored visually after 3 weeks
In short: (§1)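 Pre-em soil-surface spray; sandy loam, seeds covered with soil. WP/EC, aq. suspension/emulsion, 600–800 L/ha, +0.2% wetting agent. GH 3 wk; visual % activity vs untreated (100% = dead).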

Amaranthus retroflexus [1] = experiment: Pre-emergence herbicidal effect; details: scored visually after 3 weeks
In short: as §1

Cyperus esculentus = experiment: Pre-emergence herbicidal effect; details: Dosage 320 g/ha, scored visually after 3 weeks
In short: as §1

Echinochloa crus-galli = experiment: Pre-emergence herbicidal effect; details: scored visually after 3 weeks
In short: as §1

Lolium multiflorum = experiment: Pre-emergence herbicidal effect; details: scored visually after 3 weeks
In short: as §1

Matricaria inodora [2] = experiment: Pre-emergence herbicidal effect; details: scored visually after 3 weeks
In short: as §1

Polygonum convolvulus = experiment: Pre-emergence herbicidal effect; details: Dosage 320 g/ha, scored visually after 3 weeks
In short: as §1

Setaria viridis = experiment: Pre-emergence herbicidal effect; details: scored visually after 3 weeks
In short: as §1

Stellaria media [3] = experiment: Pre-emergence herbicidal effect; details: scored visually after 3 weeks
In short: as §1

Veronica persica [4] = experiment: Pre-emergence herbicidal effect; details: scored visually after 3 weeks
In short: as §1

Viola tricolor [5] = experiment: Pre-emergence herbicidal effect; details: scored visually after 3 weeks
In short: as §1

Amaranthus retroflexus [6] = experiment: Post-emergence herbicidal effect; details: assessed visually after about 3 weeks vs untreated controls
In short: (§2)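 Seedlings at the one-leaf stage, about 2 to 3 weeks old, are sprayed on their foliage with compound suspended or emulsified in water containing 0.2% wetting agent. After roughly 3 weeks in the greenhouse, injury is estimated visually on a 0 to 100% scale.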

Ipomoea purpurea = experiment: Post-emergence herbicidal effect; details: 320 g/ha, assessed visually after about 3 weeks vs untreated controls
In short: as §2

Matricaria inodora [7] = experiment: Post-emergence herbicidal effect; details: 320 g/ha, assessed visually after about 3 weeks vs untreated controls
In short: as §2

Stellaria media [8] = experiment: Post-emergence herbicidal effect; details: assessed visually after about 3 weeks vs untreated controls
In short: as §2

Veronica persica [9] = experiment: Post-emergence herbicidal effect; details: assessed visually after about 3 weeks vs untreated controls
In short: as §2

Viola tricolor [10] = experiment: Post-emergence herbicidal effect; details: assessed visually after about 3 weeks vs untreated controls
In short: as §2

N#Cc1cc2c(s1)C(Nc1ncc(C(F)(F)F)c(N)n1)CCC2 (racemic) [compound 285]
ALOMY pre-emergence efficacy (herbicidal activity) (Alopecurus myosuroides; Dosage 80 g/ha): 50% | ALOMY pre-emergence efficacy (herbicidal activity) (Alopecurus myosuroides; Dosage 320 g/ha): 60% | AMARE pre-emergence efficacy (herbicidal activity) (Amaranthus retroflexus [1]; Dosage 80 g/ha): 100% | AMARE pre-emergence efficacy (herbicidal activity) (Amaranthus retroflexus [1]; Dosage 320 g/ha): 100% | CYPES pre-emergence efficacy (herbicidal activity) (Cyperus esculentus): 50% | ECHCG pre-emergence efficacy (herbicidal activity) (Echinochloa crus-galli; Dosage 80 g/ha): 60% | ECHCG pre-emergence efficacy (herbicidal activity) (Echinochloa crus-galli; Dosage 320 g/ha): 100% | LOLMU pre-emergence efficacy (herbicidal activity) (Lolium multiflorum; Dosage 80 g/ha): 80% | LOLMU pre-emergence efficacy (herbicidal activity) (Lolium multiflorum; Dosage 320 g/ha): 90% | MATIN pre-emergence efficacy (herbicidal activity) (Matricaria inodora [2]; Dosage 80 g/ha): 100% | MATIN pre-emergence efficacy (herbicidal activity) (Matricaria inodora [2]; Dosage 320 g/ha): 100% | POLCO pre-emergence efficacy (herbicidal activity) (Polygonum convolvulus): 100% | SETVI pre-emergence efficacy (herbicidal activity) (Setaria viridis; Dosage 80 g/ha): 70% | SETVI pre-emergence efficacy (herbicidal activity) (Setaria viridis; Dosage 320 g/ha): 100% | STEME pre-emergence efficacy (herbicidal activity) (Stellaria media [3]; Dosage 80 g/ha): 100% | STEME pre-emergence efficacy (herbicidal activity) (Stellaria media [3]; Dosage 320 g/ha): 100% | VERPE pre-emergence efficacy (herbicidal activity) (Veronica persica [4]; Dosage 80 g/ha): 100% | VERPE pre-emergence efficacy (herbicidal activity) (Veronica persica [4]; Dosage 320 g/ha): 100% | VIOTR pre-emergence efficacy (herbicidal activity) (Viola tricolor [5]; Dosage 80 g/ha): 100% | VIOTR pre-emergence efficacy (herbicidal activity) (Viola tricolor [5]; Dosage 320 g/ha): 100% | post-emergence efficacy AMARE (Amaranthus retroflexus [6]; 80 g/ha): 100% | post-emergence efficacy AMARE (Amaranthus retroflexus [6]; 320 g/ha): 100% | post-emergence efficacy PHBPU (Ipomoea purpurea): 60% | post-emergence efficacy MATIN (Matricaria inodora [7]): 80% | post-emergence efficacy STEME (Stellaria media [8]; 80 g/ha): 90% | post-emergence efficacy STEME (Stellaria media [8]; 320 g/ha): 100% | post-emergence efficacy VERPE (Veronica persica [9]; 80 g/ha): 60% | post-emergence efficacy VERPE (Veronica persica [9]; 320 g/ha): 80% | post-emergence efficacy VIOTR (Viola tricolor [10]; 80 g/ha): 80% | post-emergence efficacy VIOTR (Viola tricolor [10]; 320 g/ha): 100%
